IC50 data for 27 compounds are collected here from patent US9656988B2 (Pharmacyclics LLC, priority 2013, dated 2017).

The target in this experiment is BTK (Homo sapiens (Human), UniProt Q06187). Briefly: Btk in vitro inhibitory activity (one of Method A TR-FRET, Method B electrophoretic mobility shift, Method C radiometric filter binding). It is filed as biochemical.
[1] abbreviates: determined using one of the methods of Example 355a, 355b and 355c, read-out: BTK IC50.

Like-named read-outs stand apart in the source and are kept apart here.

Sequence of BTK (Q06187 whole entry): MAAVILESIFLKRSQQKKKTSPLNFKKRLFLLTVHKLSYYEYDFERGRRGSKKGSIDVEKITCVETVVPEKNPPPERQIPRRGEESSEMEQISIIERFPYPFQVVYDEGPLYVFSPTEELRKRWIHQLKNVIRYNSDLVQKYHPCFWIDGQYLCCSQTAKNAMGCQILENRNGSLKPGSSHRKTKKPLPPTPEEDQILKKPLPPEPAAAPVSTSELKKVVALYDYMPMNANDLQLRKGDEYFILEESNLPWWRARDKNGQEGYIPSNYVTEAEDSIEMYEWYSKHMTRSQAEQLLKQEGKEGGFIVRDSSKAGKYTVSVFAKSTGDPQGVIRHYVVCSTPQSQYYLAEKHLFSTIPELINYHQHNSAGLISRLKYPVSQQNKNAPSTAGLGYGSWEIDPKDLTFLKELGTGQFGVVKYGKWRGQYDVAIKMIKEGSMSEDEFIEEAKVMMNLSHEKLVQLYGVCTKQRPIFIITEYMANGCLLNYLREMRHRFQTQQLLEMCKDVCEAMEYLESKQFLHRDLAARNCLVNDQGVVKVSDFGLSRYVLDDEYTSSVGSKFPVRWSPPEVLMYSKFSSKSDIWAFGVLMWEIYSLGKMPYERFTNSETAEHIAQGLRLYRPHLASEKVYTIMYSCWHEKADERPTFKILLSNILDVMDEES

In the case of `COc1ccc(C(=O)N[C@@H]2CCCN(c3cnc(C(N)=O)c(Nc4ccc(N5CCOCC5)cc4)n3)C2)cc1` [Example 123, (R)-5-(3-(4-methoxybenzamido)piperidin-1-yl)-3-(4-morpholinophenylamino)pyrazine-2-carboxamide], the IC50 (in general, the concentration that gives 50% inhibition) under setting [1] was less than 10 nM.

For `COc1ccc(C(=O)N[C@@H]2CCCN(c3cnc(C(N)=O)c(Nc4ccc(N5CCOCC5)nc4)n3)C2)cc1` [Example 124, (R)-5-(3-(4-methoxybenzamido)piperidin-1-yl)-3-(6-morpholinopyridin-3-ylamino)pyrazine-2-carboxamide], the IC50 fell in the range of 10 to 100 nM. Further, under setting [1], the IC50 is less than 10 nM.

With `COc1ccc(C(=O)N[C@@H]2CCCN(c3cnc(C(N)=O)c(Nc4ccc(N5CCOCC5)c(F)c4)n3)C2)cc1` [Example 125, (R)-3-(3-fluoro-4-morpholinophenylamino)-5-(3-(4-methoxybenzamido)piperidin-1-yl)pyrazine-2-carboxamide], the IC50 under setting [1] is less than 10 nM.

Take `COc1ccc(C(=O)N[C@@H]2CCCN(c3cnc(C(N)=O)c(Nc4ccc(N5CCOCC5=O)cc4)n3)C2)cc1` [Example 126, (R)-5-(3-(4-methoxybenzamido)piperidin-1-yl)-3-(4-(3-oxomorpholino)phenylamino)pyrazine-2-carboxamide]: the IC50 fell in the range of 10 to 100 nM. For the same compound, the IC50 under setting [1] was less than 10 nM.

For the compound `COc1ccc(C(=O)N[C@@H]2CCCN(c3cnc(C(N)=O)c(Nc4ccc(-n5ccccc5=O)cc4)n3)C2)cc1` [Example 127, (R)-5-(3-(4-methoxybenzamido)piperidin-1-yl)-3-(4-(2-oxopyridin-1(2H)-yl)phenylamino)pyrazine-2-carboxamide], the IC50 under setting [1] was 10 to 100 nM and the IC50 (read-out: Btk (IC50)) lay in the range of 10 to 100 nM.

For `COc1ccc(C(=O)N[C@@H]2CCCN(c3cnc(C(N)=O)c(Nc4ccc(N5CCCCC5=O)cc4)n3)C2)cc1` [Example 128, (R)-5-(3-(4-methoxybenzamido)piperidin-1-yl)-3-(4-(2-oxopiperidin-1-yl)phenylamino)pyrazine-2-carboxamide], the IC50 by setting is: under setting [1], less than 10 nM; (read-out: Btk (IC50)) less than 10 nM.

As for `CN1CCN(c2ccc(Nc3nc(N4CCC[C@@H](NC(=O)c5ccc(C(C)(C)C)cc5)C4)cnc3C(N)=O)cc2)CC1` [Example 129, (R)-5-(3-(4-tert-butylbenzamido)piperidin-1-yl)-3-(4-(4-methylpiperazin-1-yl)phenylamino)pyrazine-2-carboxamide], the half-maximal inhibitory concentration (IC50) was less than 10 nM under setting [1] and less than 10 nM (read-out: Btk (IC50)).

Turning to `CN1CCC(c2ccc(Nc3nc(N4CCC[C@@H](NC(=O)c5ccc(C(C)(C)C)cc5)C4)cnc3C(N)=O)cc2)CC1` [Example 130, (R)-5-(3-(4-tert-butylbenzamido)piperidin-1-yl)-3-(4-(1-methylpiperidin-4-yl)phenylamino)pyrazine-2-carboxamide], the IC50 was less than 10 nM under setting [1] and less than 10 nM (read-out: Btk (IC50)).

In the case of `COc1ccc(C(=O)N[C@@H]2CCCN(c3cnc(C(N)=O)c(Nc4ccc(C5CCN(C)CC5)cc4)n3)C2)cc1` [Example 131, (R)-5-(3-(4-methoxybenzamido)piperidin-1-yl)-3-(4-(1-methylpiperidin-4-yl)phenylamino)pyrazine-2-carboxamide], the IC50 is less than 10 nM under setting [1] and less than 10 nM (read-out: Btk (IC50)).

As for `CCN1CCC(c2ccc(Nc3nc(N4CCC[C@@H](NC(=O)c5ccc(OC)cc5)C4)cnc3C(N)=O)cc2)CC1` [Example 132, (R)-3-(4-(1-ethylpiperidin-4-yl)phenylamino)-5-(3-(4-methoxybenzamido)piperidin-1-yl)pyrazine-2-carboxamide], the IC50 is less than 10 nM under setting [1] and less than 10 nM (read-out: Btk (IC50)).

Take `COc1ccc(C(=O)N[C@@H]2CCCN(c3cnc(C(N)=O)c(Nc4ccc(C5CCN(C6CC6)CC5)cc4)n3)C2)cc1` [Example 133, (R)-3-(4-(1-cyclopropylpiperidin-4-yl)phenylamino)-5-(3-(4-methoxybenzamido)piperidin-1-yl)pyrazine-2-carboxamide]: the IC50 by setting is: under setting [1], less than 10 nM; (read-out: Btk (IC50)) less than 10 nM.

Consider `COc1ccc(C(=O)N[C@@H]2CCCN(c3cnc(C(N)=O)c(Nc4ccc(C5CCN(C(C)C)CC5)cc4)n3)C2)cc1` [Example 134, (R)-3-(4-(1-isopropylpiperidin-4-yl)phenylamino)-5-(3-(4-methoxybenzamido)piperidin-1-yl)pyrazine-2-carboxamide], for which the IC50 by setting is: under setting [1], less than 10 nM; (read-out: Btk (IC50)) less than 10 nM.

With `COc1ccc(C(=O)N[C@@H]2CCCN(c3cnc(C(N)=O)c(Nc4ccc(C5CCN(C6CCCC6)CC5)cc4)n3)C2)cc1` [Example 135, (R)-3-(4-(1-cyclopentylpiperidin-4-yl)phenylamino)-5-(3-(4-methoxybenzamido)piperidin-1-yl)pyrazine-2-carboxamide], the IC50 was less than 10 nM under setting [1] and less than 10 nM (read-out: Btk (IC50)).

As to `COc1ccc(C(=O)N[C@@H]2CCCN(c3cnc(C(N)=O)c(Nc4ccc(C5CCN(CC#N)CC5)cc4)n3)C2)cc1` [Example 136, (R)-3-(4-(1-(cyanomethyl)piperidin-4-yl)phenylamino)-5-(3-(4-methoxybenzamido)piperidin-1-yl)pyrazine-2-carboxamide], the IC50 lay in the range of 10 to 100 nM under setting [1] and 10 to 100 nM (read-out: Btk (IC50)).

Turning to `COc1ccc(C(=O)N[C@@H]2CCCN(c3cnc(C(N)=O)c(Nc4ccc(C5CCN(CC(F)(F)F)CC5)cc4)n3)C2)cc1` [Example 137, (R)-5-(3-(4-methoxybenzamido)piperidin-1-yl)-3-(4-(1-(2,2,2-trifluoroethyl)piperidin-4-yl)phenylamino)pyrazine-2-carboxamide], the IC50 reads like this: (Btk (IC50)) 10 to 100 nM; under setting [1], 10 to 100 nM.

On to `COc1ccc(C(=O)N[C@@H]2CCCN(c3cnc(C(N)=O)c(Nc4ccc(C5CCN(C=O)CC5)cc4)n3)C2)cc1` [Example 138, (R)-3-(4-(1-formylpiperidin-4-yl)phenylamino)-5-(3-(4-methoxybenzamido)piperidin-1-yl)pyrazine-2-carboxamide], for which the IC50 runs as follows: under setting [1], less than 10 nM; (read-out: Btk (IC50)) less than 10 nM.

In the case of `COc1ccc(C(=O)N[C@@H]2CCCN(c3cnc(C(N)=O)c(Nc4ccc(C5CCN(C(C)=O)CC5)cc4)n3)C2)cc1` [Example 139, (R)-3-(4-(1-acetylpiperidin-4-yl)phenylamino)-5-(3-(4-methoxybenzamido)piperidin-1-yl)pyrazine-2-carboxamide], the IC50 reads like this: under setting [1], less than 10 nM; (read-out: Btk (IC50)) less than 10 nM.

With `CCC(=O)N1CCC(c2ccc(Nc3nc(N4CCC[C@@H](NC(=O)c5ccc(OC)cc5)C4)cnc3C(N)=O)cc2)CC1` [Example 140, (R)-5-(3-(4-methoxybenzamido)piperidin-1-yl)-3-(4-(1-propionylpiperidin-4-yl)phenylamino)pyrazine-2-carboxamide], the half-maximal inhibitory concentration (IC50) under setting [1] is less than 10 nM.

As to `COc1ccc(C(=O)N[C@@H]2CCCN(c3cnc(C(N)=O)c(Nc4ccc(C5CCN(C(=O)CC#N)CC5)cc4)n3)C2)cc1` [Example 141, (R)-3-(4-(1-(2-cyanoacetyl)piperidin-4-yl)phenylamino)-5-(3-(4-methoxybenzamido)piperidin-1-yl)pyrazine-2-carboxamide], under setting [1], the IC50 is less than 10 nM.

Regarding `COc1ccc(C(=O)N[C@@H]2CCCN(c3cnc(C(N)=O)c(Nc4ccc(C5CCN(C(=O)N(C)C)CC5)cc4)n3)C2)cc1` [Example 142, (R)-3-(4-(1-(dimethylcarbamoyl)piperidin-4-yl)phenylamino)-5-(3-(4-methoxybenzamido)piperidin-1-yl)pyrazine-2-carboxamide], the IC50 was 10 to 100 nM (Btk (IC50)) and 10 to 100 nM under setting [1].

`COc1ccc(C(=O)N[C@@H]2CCCN(c3cnc(C(N)=O)c(Nc4ccc(C5CCN(S(C)(=O)=O)CC5)cc4)n3)C2)cc1` [Example 143, (R)-5-(3-(4-methoxybenzamido)piperidin-1-yl)-3-(4-(1-(methylsulfonyl)piperidin-4-yl)phenylamino)pyrazine-2-carboxamide]: the IC50 lay within 10 to 100 nM (Btk (IC50)) and 10 to 100 nM under setting [1].

Regarding `COc1ccc(C(=O)N[C@@H]2CCCN(c3cnc(C(N)=O)c(Nc4ccc(N5CCC(C(=O)N(C)C)CC5)cc4)n3)C2)cc1` [Example 144, (R)-3-(4-(4-(dimethylcarbamoyl)piperidin-1-yl)phenylamino)-5-(3-(4-methoxybenzamido)piperidin-1-yl)pyrazine-2-carboxamide], the IC50 is less than 10 nM (Btk (IC50)) and less than 10 nM under setting [1].

Take `CS(=O)(=O)c1ccc(Nc2nc(N3CCC[C@@H](NC(=O)N4CCCCC4)C3)cnc2C(N)=O)cc1` [Example 145, (R)-3-(4-(methylsulfonyl)phenylamino)-5-(3-(piperidine-1-carboxamido)piperidin-1-yl)pyrazine-2-carboxamide]: the IC50 was less than 10 nM under setting [1] and less than 10 nM (read-out: Btk (IC50)).

For the compound `CN1CCN(c2ccc(Nc3nc(N4CCC[C@@H](NC(=O)N5CCCCC5)C4)cnc3C(N)=O)cc2)CC1` [Example 146, (R)-3-(4-(4-methylpiperazin-1-yl)phenylamino)-5-(3-(piperidine-1-carboxamido)piperidin-1-yl)pyrazine-2-carboxamide], the IC50 lay in the range of 10 to 100 nM (Btk (IC50)) and 10 to 100 nM under setting [1].

In the case of `CN1CCC(c2ccc(Nc3nc(N4CCC[C@@H](NC(=O)N5CCCCC5)C4)cnc3C(N)=O)cc2)CC1` [Example 147, (R)-3-(4-(1-methylpiperidin-4-yl)phenylamino)-5-(3-(piperidine-1-carboxamido)piperidin-1-yl)pyrazine-2-carboxamide], the IC50 was less than 10 nM under setting [1] and less than 10 nM (read-out: Btk (IC50)).

Regarding `NC(=O)c1ncc(N2CCC[C@@H](NC(=O)N3CCCCC3)C2)nc1Nc1ccc(C2CCN(C=O)CC2)cc1` [Example 148, (R)-3-(4-(1-formylpiperidin-4-yl)phenylamino)-5-(3-(piperidine-1-carboxamido)piperidin-1-yl)pyrazine-2-carboxamide], the concentration for half-maximal inhibition (IC50) runs as follows: under setting [1], less than 10 nM; (read-out: Btk (IC50)) less than 10 nM.

With `CCC(=O)N1CCC(c2ccc(Nc3nc(N4CCC[C@@H](NC(=O)N5CCCCC5)C4)cnc3C(N)=O)cc2)CC1` [Example 149, (R)-5-(3-(piperidine-1-carboxamido)piperidin-1-yl)-3-(4-(1-propionylpiperidin-4-yl)phenylamino)pyrazine-2-carboxamide], the IC50 (Btk (IC50)) lay within 10 to 100 nM and the IC50 under setting [1] fell in the range of 10 to 100 nM.
